Test results published in patent US8350039B2, “Substituted isoquinoline derivatives, pharmaceutical compositions, and methods of use as beta-secretase inhibitors” (High Point Pharmaceuticals, LLC, priority 2009, dated 2013).

Key:
BACE-1 enzyme = target: T1, BACE-1 enzyme (Homo sapiens, UniProt P56817); assay: BACE Fluorescence Resonance Energy Transfer (FRET) Assay; assay type: biochemical; conditions: peptide substrate, pH 4-4.5, 30 min pre-incubation, 1.5 hours at room temperature
T1 construct: purchased R & D Systems 931AS
Procedure: BACE Fluorescence Resonance Energy Transfer (FRET) Assay
In the following assay, the proteolytic activity of BACE is measured by observing cleavage of a fluorescent group from a peptide substrate containing a rhodamine fluorescent donor and a quenching acceptor.
The inhibitory activity of compounds of Formula (I) may be compared to a statine derived control inhibitor STA200 (MP Biomedical Cat. #STA-200). The cleavage reaction occurs when a BACE-1 substrate (Invitrogen, Cat. #P2986) was added to a reaction mixture containing BACE-1 enzyme (R & D Systems, Cat. #931AS) and allowed to proceed for 1.5 hours. Fluorescence, used as a marker of BACE activity, is monitored using 540 nm excitation and 585 nm emission wavelengths (Envision, Perkin Elmer).
A typical assay reaction contains BACE-1 enzyme—in assay buffer (50 mM sodium acetate, pH 4-4.5, 0.01% CHAPS (3-[(3-Cholamidopropyl)dimethylammonio]-1-propanesulfonate), 0.0125% TritonX-100, 0.006% EDTA) which is pre-incubated for 30 minutes with test compound in 7.5% DMSO. The reaction is initiated with the addition of BACE-1 substrate in assay buffer and allowed to proceed for 1.5 hours at room temperature. Assays are conducted in black 384-well microtiter plates and scanned at room temperature using 540 nm excitation and 585 nm emission wavelengths.
A test compound's activity is reported as the IC50.

[1] = system: HEK293 cells stably expressing wildtype human APP695 protein (HEK-APPwt cells); assay: Aβ Cell Based Assay (Aβ1-40 secretion, ELISA); conditions: reduction of Aβ1-40 secretion from HEK-APPwt cells, 6 hours incubation, DAPT as 100% inhibition reference
Procedure: Aβ Cell Based Assay Procedure
In the following assay, the proteolytic activity of BACE in cells exposed to varying concentrations of a compound of interest is measured by observing the amount of Aβ1-40 secreted from HEK293 cells (Human Embryonic Kidney epithelial cell line) stably expressing wildtype human APP695 protein (HEK-APPwt cells).
HEK-APPwt cells were grown in high glucose DMEM (Dulbecco's Modified Eagles Medium SIGMA Cat. #D5796) supplemented with 25 mM HEPES (4-(2-hydroxyethyl)-1-piperazineethanesulfonic acid) (pH 7.4) (Invitrogen Cat. #15630-114), 0.1 mM NEAA (Non-essential Amino Acids) (BioWhittaker Cat. #13-114E), 10% fetal bovine serum (SIGMA Cat. #F4135) and 250 μg/mL hygromycin (Invitrogen Cat. #10687-010) in T-225 flasks at 37° C. with 5% CO2 and humidity control.
Test compounds were initially prepared in DMSO and diluted with DMEM media containing 2% FBS (Fetal bovine serum). Ten standard compound solutions were prepared having a range of concentrations. The standard compound solutions were used to determine the EC50 of the test compound. The range of concentrations chosen may depend on the compound's predicted potency.
To prepare the cells for the assay, a flask containing HEK-APPwt cells were trypsinized briefly (1 mL trypsin), and once the cells detached, 4 mL of 10% FBS-DMEM was added to the flask. The detached cells were centrifuged at 900 rpm for 5 min to form a pellet.
The HEK-APPwt cell pellet was re-suspended with 10 mL DMEM media containing 2% FBS. 80 μL of the cell suspension was added to each well of a 96-well cell culture plate to give 100×10^4 cells/mL. 10 μL of a standard compound solution was added to each well of the 96-well cell culture plate followed by 10 μL of Alamar blue solution. The cells were incubated at 37° C. in a 5% CO2 incubator for 6 hours.
At the end of the incubation, the plates were removed from incubator, and the supernatant was collected. Aβ1-40 concentration in the medium was measured by using a commercial Aβ1-X ELISA kit (IBL, Japan Cat. #27729). Briefly, the ELISA plates were coated with an anti-human Aβ (N)(82E1) mouse IgG monoclonal antibody. A horseradish peroxidase conjugated anti-human Aβ11-28 mouse IgG monoclonal antibody was used for detection. The cell culture supernatant was diluted with EIA buffer+protease inhibitors (kit buffer containing protease inhibitors (1 mL PI/30 mL buffer)). A 100 μL aliquot of the diluted supernatant was added to each well of the ELISA plate and incubated for 6 hrs at 4° C. The ELISA plate was washed 8 times with phosphate buffered saline (PBS) containing 0.05% Tween 20.
A 100 μL of detection antibody was then added and incubated for 1 hour at 4° C. The plate was washed 8 times with PBS buffer containing 0.05% Tween 20 followed by addition of 100 μL of the chromogen tetramethylbenzidine (TMB). The plate was incubated in the dark at room temperature for about 30 min and a stop solution (1N H2SO4) was added.
The intensity of the color developed was measured at 450 nm. The optical density at 450 nm (OD450) is proportional to the concentration of human Aβ1-40 secreted by the cell. As a reference, N—[N-(3,5-difluorophenacetyl-L-alanyl)]-S-phenylglycine t-butyl ester (DAPT, a γ-secretase inhibitor) was used to indicate 100% inhibition of BACE activity. Thus, the assay measures the ability of a compound of interest to reduce Aβ1-40 secretion. Compound potency was reported as the EC50 by calculating the percent inhibition at all concentration levels and the data were fit with non-linear curve fitting algorithm using in GraphPad Prism.

T1 sequence (P56817 46-457 limits assumed): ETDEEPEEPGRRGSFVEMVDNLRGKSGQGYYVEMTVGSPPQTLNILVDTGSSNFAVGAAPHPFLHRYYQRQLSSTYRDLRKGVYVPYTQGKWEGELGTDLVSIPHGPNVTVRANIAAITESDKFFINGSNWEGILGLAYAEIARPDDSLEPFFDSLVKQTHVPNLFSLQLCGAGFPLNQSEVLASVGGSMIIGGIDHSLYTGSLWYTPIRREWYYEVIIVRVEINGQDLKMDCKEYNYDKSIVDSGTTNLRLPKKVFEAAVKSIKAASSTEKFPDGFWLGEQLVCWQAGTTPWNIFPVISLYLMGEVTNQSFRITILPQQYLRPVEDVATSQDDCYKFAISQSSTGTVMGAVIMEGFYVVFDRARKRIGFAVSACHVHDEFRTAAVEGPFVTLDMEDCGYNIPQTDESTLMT

SMILES: O=C(Nc1nc2cc(N(Cc3ccccc3)Cc3ccccc3)ccc2[nH]1)c1cc2ccccc2cn1 [Example 12, Isoquinoline-3-carboxylic acid (5-dibenzylamino-1H-benzoimidazol-2-yl)-amide]
- IC50 (BACE-1 enzyme): 0.38 µM
- EC50 [1]: 2.3 µM

SMILES: O=C(Nc1nc2cc(OCc3ccccc3)ccc2[nH]1)c1cc2ccccc2cn1 [Example 1, Isoquinoline-3-carboxylic acid (5-benzyloxy-1H-benzoimidazol-2-yl)-amide]
- IC50 (BACE-1 enzyme): 0.085 µM
- EC50 [1]: 0.12 µM

SMILES: O=C(Nc1nc2cc(-c3ccccc3)ccc2[nH]1)c1cc2ccccc2cn1 [Example 9, Isoquinoline-3-carboxylic acid (5-phenyl-1H-benzoimidazol-2-yl)-amide]
- IC50 (BACE-1 enzyme): 0.19 µM
- EC50 [1]: 1.09 µM

SMILES: COc1cccc(-c2ccc3[nH]c(NC(=O)c4cc5ccccc5cn4)nc3c2)c1 [Example 10, Isoquinoline-3-carboxylic acid [5-(3-methoxy-phenyl)-1H-benzoimidazol-2-yl]-amide]
- IC50 (BACE-1 enzyme): 0.16 µM
- EC50 [1]: 1 µM

SMILES: O=C(Nc1nc2cc(OCc3ccc(F)cc3)ccc2[nH]1)c1cc2ccccc2cn1 [Example 4, Isoquinoline-3-carboxylic acid [5-(4-fluoro-benzyloxy)-1H-benzoimidazol-2-yl]-amide]
- IC50 (BACE-1 enzyme): 0.1 µM
- EC50 [1]: 0.16 µM

SMILES: O=C(Nc1nc2cc(OCCC3CCCC3)ccc2[nH]1)c1cc2ccccc2cn1 [Example 6, Isoquinoline-3-carboxylic acid [5-(2-cyclopentyl-ethoxy)-1H-benzoimidazol-2-yl]-amide]
- IC50 (BACE-1 enzyme): 0.26 µM
- EC50 [1]: 0.16 µM

SMILES: O=C(Nc1nc2cc(OCCCc3ccccc3)ccc2[nH]1)c1cc2ccccc2cn1 [Example 8, Isoquinoline-3-carboxylic acid [5-(3-phenyl-propoxy)-1H-benzoimidazol-2-yl]-amide]
- IC50 (BACE-1 enzyme): 0.47 µM
- EC50 [1]: 1.2 µM

SMILES: O=C(Nc1nc2cc(OCCc3ccccc3)ccc2[nH]1)c1cc2ccccc2cn1 [Example 2, Isoquinoline-3-carboxylic acid (5-phenethyloxy-1H-benzoimidazol-2-yl)-amide]
- IC50 (BACE-1 enzyme): 0.19 µM
- EC50 [1]: 2 µM

SMILES: O=C(Nc1nc2cc(OCc3ccc(F)cc3F)ccc2[nH]1)c1cc2ccccc2cn1 [Example 5, Isoquinoline-3-carboxylic acid [5-(2,4-difluoro-benzyloxy)-1H-benzoimidazol-2-yl]-amide]
- IC50 (BACE-1 enzyme): 0.86 µM
- EC50 [1]: 1.2 µM

SMILES: O=C(Nc1nc2cc(NCc3ccccc3)ccc2[nH]1)c1cc2ccccc2cn1 [Example 11, Isoquinoline-3-carboxylic acid (5-benzylamino-1H-benzoimidazol-2-yl)-amide]
- IC50 (BACE-1 enzyme): 0.13 µM
- EC50 [1]: 0.6 µM

SMILES: O=C(Nc1nc2cc(OCc3ccc(C(F)(F)F)cc3)ccc2[nH]1)c1cc2ccccc2cn1 [Example 3, Isoquinoline-3-carboxylic acid [5-(4-trifluoromethyl-benzyloxy)-1H-benzoimidazol-2-yl]-amide]
- IC50 (BACE-1 enzyme): 0.95 µM
- EC50 [1]: 0.55 µM

SMILES: O=C(Nc1nc2cc(N3CCC(c4ccccc4)CC3)ccc2[nH]1)c1cc2ccccc2cn1 [Example 7, Isoquinoline-3-carboxylic acid [5-(4-phenyl-piperidin-1-yl)-1H-benzoimidazol-2-yl]-amide]
- IC50 (BACE-1 enzyme): 0.1 µM
- EC50 [1]: 1.4 µM
